Experimental data from PMC11674305, “Inhibition of Neural Crest Cell Migration by Strobilurin Fungicides and Other Mitochondrial Toxicants” (Cells, 2024).

Columns and labels:
complex I (cI) = experiment: Electron transport chain complex activity in permeabilized NCC (Seahorse); assay type: cell-based, human; conditions: 60 μM, due to block of cIII
Source text: (§1) Magel et al. (2024): Inhibition of neural crest cells migration by strobilurin fungicides
(§2) Figure S9. Inhibition of electron transport chain complexes by picoxystrobin in neural crest […]
(§3) NCC were exposed to the BMC10(V) of the cMINC assay (60 μ M). The grey area indicates th e non-significant range of the assay (≤ 25% change). The effect on complex IV (cIV) was non-significant (green bar). The purple bar indicates complex III (cIII) inhibition. Yellow bars […]
(§4) that for these assays, the electrons have to pass cIII to reach cIV (oxygen consumption), i.e. electrons from cI (or cII) cannot be used for the reduction of oxygen, as they need to flow through cIII (which is blocked). The pattern of inhibition is indicative of cIII as illustrated earlier (Delp et al., 2019; van der Stel et al., 2020).
(§5) To investigate the inhibition pattern of picoxystrobin, NCC were permeabilized and complex-specific substrates and inhibitors were sequentially injected as described earlier (Delp et al., 2019). In detail, cells were permeabilized with MAS buffer (220 mM mannitol, 1 mM ADP, 70 mM sucrose, 10 mM KH2PO4, 5 mM MgCl2, 2 mM HEPES, 1 mM EGTA, 4 mg/ml fatty acid-free BSA, pH = 7.2) supplemented with 25 μ g/mL digitonin. Seahorse measurements were started directly afterwards, and basal OCRs were assessed for internal normalization. Then picoxystrobin was injected and cI activity was assessed. For this, cII was inhibited (5 mM malonat) and substrates for cI (2 mM […], 2.5 mM malic acid, 5 mM pyruvic acid) […]
(§6) were added. […] Next, cI was […]
(§7) inhibited (0.5 μ M rotenone) and substrates of cIII (250 μM duroquinol ) were added. At this step, cIII inhibition data for cIII were obtained. In the case of a cI inhibition (e.g. by rotenone), […]
(§8) To assess cII activity, cI was inhibited and the substrate of cII (10 mM succinic acid) was added.
(§9) Lastly, to assess cIV activity, cII was inhibited and the substrates of cIV (125 μ M TMPD, 2 mM ascorbic acid) were added. Data were compared to the solvent control. Details and assay validation have been provided earlier (Delp et al., 2019; van der Stel et al., 2020). […]

complex IV (cIV) = experiment: as above; assay type: cell-based, human; conditions: 60 μM (BMC10(V) of cMINC)
Source text: as §1, §2, §3, §4, §5, §6, §7, §8, §9

complex II (cII) = experiment: as above; assay type: cell-based, human; conditions: 60 μM, due to block of cIII
Source text: as §1, §2, §3, §4, §5, §6, §7, §8, §9

neural crest cells (NCC) [1] = experiment: Transwell migration assay (FBS chemoattractant, 6 h); assay type: cell-based, human; conditions: glucose or galactose medium
Experimental: Cells were seeded at a density of 50,000 cells/well (150,000 cells/cm^2) into the upper chamber (insert) of the 96-well transwell plates (pore size 8 μm, polycarbonate membrane, Corning, Glendale, AZ, USA). The cells were stimulated to migrate through the membrane by medium supplemented with 5% of the chemoattractant fetal bovine serum (FBS) (PAA Laboratories, Pasching, Austria) in the lower chamber (reservoir). For testing of migration inhibition upon compound treatment, compounds were used at a concentration of BMC10 (V) of prior cMINC testing. Three technical replicates per condition were used. As a control for “unstimulated” migration, medium without any chemoattractant was tested. As an endpoint specific control for “inhibited” migration, CytoD with a concentration of 200 nM was used. After 6 h incubation time, the medium was aspirated, and reservoirs were washed with DPBS. Afterwards, reservoirs were filled with EDTA dissociation solution (DPBS supplemented with 0.1% 0.5 M EDTA UltraPure pH 8.0 (Thermo Fisher Scientific, Waltham, MA, USA), and 0.18% NaCl) containing 0.25 μL/mL calcein-AM and incubated for 30 min at 37 °C. The plates were then centrifuged at 300× g for 5 min (1200 rpm, Heraeus Multifuge 1 S-R, ThermoScientific) to remove migrated cells from the membrane. The tray with 96 wells of permeable inserts was removed, and the receiver plate was measured in the spectrophotometer (TECAN, Männedorf, Switzerland) with an emission wavelength of 520 nm. After subtraction of the blank values, the number of migrated cells was normalized to that of cells stimulated with FBS.
To perform the experiments under mitochondria-dependent conditions, the cells were handled exactly in the same way, but the medium was adapted. The N2-S medium was adjusted, so that no glucose was present but galactose. The medium consisted of SILAC^TM Advanced DMEM/-F12 FLEX (Gibco/Fisher Scientific, Hampton, NH, USA), 15 μg/mL insulin, 400 μM GlutaMAX, 0.7 mM L-Arginine, 0.5 mM L-Lysine, 21.5 µM Phenol Red, 20 nM progesterone, 100 μM putrescine and 30 nM selenium, 92.5 μg/mL apotransferrin, 4.7 mg/mL galactose (18 mM). The cytokines 20 ng/mL EGF and 20 ng/mL FGF2 were always freshly added to each run.

[2] = cited from earlier work
neural crest cells (NCC) [3] = experiment: Intracellular ATP measurement (CellTiterGlo); assay type: cell-based, human; conditions: after 60 min, at BMC10 (V) of cMINC
Experimental: Cells were seeded at a density of 20,000 cells/well. The NCCs were treated with the BMC10 (V) of the cMINC screen for one hour, six hours or 24 h. Then, a CellTiterGlo-Triton mix was prepared. Therefore, a 0.5% Triton solution in PBS was prepared, and the commercial reagent mix CellTiterGlo 2.0 (Promgea, Madison, WI, USA) was added in a 1:1 ratio. An amount of 50 µL/well of the mix was added to 100 µL of medium. The plate was shaken for two minutes, and 100 µL of the cell mixture was transferred to a white measurement plate. For the blank value, only medium with the mix was measured. Luminescence data of samples were normalized to DMSO solvent controls, and the ATP data are given in % relative to “untreated cells”.

CO/C=C(/C(=O)OC)c1ccccc1COc1cccc(C(F)(F)F)n1 [Picoxystrobin, picoxystrobin]
effect on complex I (cI) (complex I (cI)): apparent inhibition
effect on complex IV (cIV) (complex IV (cIV)): non-
effect on complex II (cII) (complex II (cII)): apparent inhibition
concentration at which transwell migration was inhibited (neural crest cells (NCC) [1]): ≥ 5 µM
Henry's law constant ([2]; at 25 °C, VIVD model input): 6 × 10^−4 Pa*m^3*mol⁻^1
charge characterization ([2]; model input): neutral
ATP levels (neural crest cells (NCC) [3]): did not decrease
